Consider `CCCc1c(OCc2ccc(C(=O)OCC)c(OCC)c2)ccc(C(C)=O)c1O`, for which the melting point was 92 to 94 °C.

`Fc1ccc(-c2ccc(-c3cn([C@H]4CN5CCC4CC5)nn3)cc2)cn1`: the melting point came out at 181 °C.

The molecule `CNC(=O)C(NC(=O)C(CC(=O)O)N1C=CN(c2ccc(-c3ccccc3)cc2)C1)C(C)(C)C` (mixture of isomers) registered a melting point of 187 to 188 °C.

As to `CC(=O)OCC1OC(OC(C)=O)C(N=[N+]=[N-])C(OC(C)=O)C1OC(C)=O` (stereo unspecified), the melting point was in the range of 131 to 132 °C.

Regarding `Cn1c([N+](=O)[O-])cnc1C(Cl)Cl`, the melting point was 52 °C.

The molecule `CCCCCCCCCCCCN1CN=C(NC(=O)Nc2c(C(C)C)cccc2C(C)C)N1` had a melting point of 128 to 140 °C.

The molecule `Cc1c(C)n(CCCF)c2c(OCc3ccccc3)nncc12` came in with a melting point of 100 to 101 °C.

With `CCOc1ccc(Cl)c([N+](=O)[O-])c1`, the melting point is 48 to 49.5 °C.

For the molecule `CSc1ccc(Br)cc1C(=O)Cn1cccc1`, the melting point lay in the range of 138 to 139 °C.

On to `O=C(O)c1cc(C(=O)O)cc(N2C(=O)C=CC2=O)c1`, for which the melting point is over 300 °C.

Molecule `COc1ccc2sc(-c3ccc(OCCN4CCCC4)cc3)cc2c1` displayed a melting point of 123 to 126 °C.

The molecule `CN(C)c1c(F)c(F)c(F)c2c1c(=O)cc(C(=O)O)n2C1CC1` yielded a melting point of 160 to 163 °C.

In the case of `C=C1CC2C(CCC3(C)C2CCC3(OC(C)=O)C(=O)COC(C)=O)C2(C)CCC(=O)C=C12` (stereo unspecified), the melting point was in the range of 227 to 228 °C.

Consider `CC(=O)Nc1cc([N+](=O)[O-])ccc1OCCCN(C)C`, for which the melting point was 69 °C.

`CSc1ccc(-c2coc3ccc(-c4nnc(O)o4)cc23)cc1` registered a melting point of 211 to 212 °C.

The molecule `CCOC(=O)CC1Cc2ccc(O)cc2Cc2ccccc21` (stereo unspecified) came in with a melting point of 110 to 112 °C.

`COc1ccc(-n2c(=O)cc(OC(C)=O)c3ccccc32)cc1` displayed a melting point of 174 to 175 °C.

Molecule `COc1cccc(-c2c(Cl)c(CN3CCOCC3)nc3sc4c(c23)CCN(Cc2ccccc2)C4)c1OC` yielded a melting point of 176 to 177 °C.

As to `O=C(NCC(F)(F)F)C1(CCCCc2ccc(NS(=O)(=O)c3ccccc3[N+](=O)[O-])cc2)c2ccccc2-c2ccccc21`, the melting point was 60 to 64 °C.

`CCOc1ccc2c(=O)c(C(=O)O)cn(CCO)c2n1` returned a melting point of 220 °C.

`Cn1nc(-c2cc(S)c(Cl)cc2F)c(Cl)c1C(F)(F)F` displayed a melting point of 56 to 58 °C.

As to `CCCCc1cc(CCCc2c3c(nn2CCC)c(N)nc2ccccc23)no1`, the melting point was in the range of 132 to 133 °C.

In turn, `COc1ccc(C(=O)n2c(C)c(Cc3cc(=O)n(C4CCCCC4)[nH]3)c3cc(OC)ccc32)cc1` had a melting point of 88 to 90 °C.

Regarding `CC(C)c1ccc(N(Cc2cnn(CCN(C)C)c2)C(=O)C2CCCc3c(O)cccc32)cc1` (stereo unspecified), the melting point turned out to be 92 °C.

The molecule `O=C(O)c1ccc2c(c1-c1c(C(=O)O)ccc3c1OCO3)OCO2` registered a melting point of 253 to 255 °C.

With `Clc1c2nc3ccccc3c-2[nH]c2ccccc12`, the melting point is 220 to 222 °C.

For `Cc1ccccc1C=Nc1c2c(nc3ccccc13)CCCC2`, the melting point was 160 to 162 °C.

On to `CCn1nc(-c2ccc(Oc3nc4cccnc4n3C)cc2)c2nccnc21`, for which the melting point is 161 to 162 °C.

Consider `CC(C)(C)[Si](C)(C)Oc1ccc2c3c1OC1C(C4OCCO4)CCC4(O)C(C2)N(CC2CC2)CCC314` (stereo unspecified), for which the melting point was 108 to 109 °C.

As for `Cc1nc2c(-c3ccc(N4CCN(C)CC4)cc3)cnn2c(N)c1-c1cccc(Cl)c1`, the melting point lay within 113 to 115 °C.

`CCOc1ccccc1C(=O)NC(=O)NC1CN2CCC1CC2` (stereo unspecified) yielded a melting point of 198 to 199 °C.

On to `COc1cc(CBr)ccc1[N+](=O)[O-]`, for which the melting point turned out to be 98 °C.

For `CC(C)(C)[NH+]([O-])C(=O)Nc1ccnc(-c2ccncc2)n1` (stereo unspecified), the melting point is 125 to 150 °C.

On to `CC(C)Oc1ccc(-n2c(C(=O)O)c(C(=O)O)c3cc(Oc4ncccc4C(N)=O)ccc32)cc1`, for which the melting point fell in the range of 236 to 238 °C.

`N#Cc1ccc(-c2cn(-c3ccc(C#N)cc3)c(SCCO)n2)cc1` returned a melting point of over 300 °C.

Regarding `CCc1nc2c(N)nc(C)c(C)c2n1CCCC(=O)N1CCOCC1`, the melting point fell in the range of 209 to 210 °C.

`CN(C)C=Nc1ncc[nH]1` returned a melting point of 146 to 147 °C.

`CCCc1nccn1-c1nc(Cl)nc2nc[nH]c12` displayed a melting point of 224 to 225 °C.

On to `CCOC=Nc1ccc2nnc(-c3ncc([N+](=O)[O-])n3C)n2n1`, for which the melting point lay within 134 to 135 °C.

`O=C(c1ccc(F)cc1)c1nccc(O)c1O` had a melting point of 249 to 251 °C.

For `NC(=NO)c1ccc(Cn2ccc(OCc3ccccc3)c(Br)c2=O)cc1`, the melting point was 210 to 212 °C.

The molecule `O=C1Cc2cc(Cl)ccc2Oc2ccc(F)cc21` gave a melting point of 91 to 92 °C.

`Cc1noc(=O)c2ccc(NC(=O)C(=O)CC3(c4cccc(C(F)(F)F)c4)CC3)cc12` displayed a melting point of 136 to 139 °C.

As to `CCCCc1nc(CC(=O)OC)c(Cl)n1Cc1ccc(NC(=O)c2ccccc2C(=O)O)cc1`, the melting point is 150 to 152 °C.

Turning to `CCCCOC(=O)COc1ccc(C(=O)Nc2cc(F)ccc2Sc2ccccc2-c2nnn[nH]2)cc1`, the melting point lay in the range of 177 to 179 °C.

As for `Cn1nc(-c2ccc(S(=O)(=O)N3CCn4c(c(C(N)=O)c(Cl)c4-c4ccccc4)C3)s2)cc1C(F)(F)F`, the melting point lay within 159 to 161 °C.

`O=C(Cn1nc(-c2ccccc2O)nc1-c1ccccc1O)NCCO` showed a melting point of 208 to 211 °C.

Molecule `Cc1c(F)c(Oc2cccnc2)nc(Oc2cccc(C(=N)N)c2)c1F` had a melting point of 213 to 214 °C.

For the molecule `CCOC(=O)N(N)C(=O)c1cc(Cl)ccc1O`, the melting point was determined as 172 °C.

`CCOC(=O)C(C)(C)Oc1ccc(CNc2ccc(Cl)cc2)cc1OC` came in with a melting point of 73 to 74 °C.

`Cc1ccc(OCCCCCCCCCCC(Cl)(Cl)C(=O)O)cc1` gave a melting point of 67 to 68 °C.

Take `CCCCOCC(O)COc1ccc(-c2nc(OC)nc(-c3ccc(OCC(O)COCCCC)cc3O)n2)c(O)c1` (stereo unspecified): the melting point is 98 to 99 °C.

In turn, `CC(C)CCOC(=O)COc1cc(F)ccc1C(=S)NCc1cccc([N+](=O)[O-])c1` registered a melting point of 56 to 58 °C.

Molecule `CC(C)(C)OC(=O)[C@@H](CCc1ccc([N+](=O)[O-])cc1)OS(=O)(=O)c1ccc([N+](=O)[O-])cc1` returned a melting point of 97 to 98 °C.

The molecule `CCCCCCCCOc1ccc(Cl)c2c(=O)c3ccccc3sc12` had a melting point of 86 to 87.5 °C.

The molecule `CN1Cc2c(Cl)ncn2-c2cccnc2C1=O` returned a melting point of 247 to 248 °C.

As to `Cc1cccc2ncc(C(=O)NC34CC5CC(CC(C5)C3)C4)c(=O)n12`, the melting point lay within 190 to 193 °C.

The molecule `COCCOC(=O)c1ccccc1Nc1nc(Nc2cc3c(cc2OC)CCN(CCO)CC3)ncc1Cl` gave a melting point of 125 to 131 °C.

For the molecule `COC(=O)c1cc(Oc2ccc([N+](=O)[O-])cc2)cc(Oc2ccc([N+](=O)[O-])cc2)c1`, the melting point was 180 to 182 °C.

`COc1ccc(N2C(=O)C(C)(C)N(c3ccc(Cc4ccccc4)cc3)C2=S)cc1` gave a melting point of 162 °C.

As for `COc1ccc(C(=O)Nc2nc(C(Cl)(Cl)Cl)ns2)cc1`, the melting point is 172 °C.

Turning to `CC(=O)OC1c2ccccc2Oc2ccccc21`, the melting point fell in the range of 109 to 112 °C.

`CC(C)(C)OC(=O)N1CCN(C(=O)OC(C)(C)C)C(C(O)(Cc2ccccc2)Cc2ccccc2)C1` (stereo unspecified) gave a melting point of 150 °C.

The molecule `CS(=O)(=O)Nc1ccc(OCCN2CCN(C(=O)c3ccc(NS(C)(=O)=O)cc3)CC2)cc1` yielded a melting point of 170 to 175 °C.

As to `CCOP(=O)(Cc1ccc(C(=S)N2CCCc3ccccc32)cc1)OCC`, the melting point is 96 to 97 °C.

As to `CC(C)(C)c1cc(-c2nc(Br)no2)cc(C(C)(C)C)c1O`, the melting point lay within 113 to 115 °C.

`COC=C(c1cccnc1)C(C)c1ccc(Cl)cc1Cl` (stereo unspecified) had a melting point of 67 to 68 °C.

Take `CCCc1c(OCCCOc2ccc3c(c2)CCC(CC(=O)OC)C3=O)ccc(C(C)=O)c1O` (stereo unspecified): the melting point was 96 to 98 °C.

Take `O=C(O)COc1ccc(C(=C2SCCCS2)c2ccccc2)cc1`: the melting point fell in the range of 176 to 177 °C.

Turning to `COc1cccc(S(=O)(=O)c2ccc3c(c2)c(CCN(C)C(=O)OC(C)(C)C)c(C)n3C)c1`, the melting point lay within 123 to 127 °C.

For `CCCCOC(=O)c1cc(OC(=O)OC)c2c(c1)C(=O)c1cccc(OC(=O)OC)c1C2=O`, the melting point lay in the range of 200 to 202 °C.

Regarding `CCn1c2cc(C(F)(F)F)ccc2c2oc(C(=O)Cl)cc21`, the melting point is 124 to 126 °C.

With `O=C1OC(O)c2c(F)ccc(F)c21` (stereo unspecified), the melting point fell in the range of 125 to 128 °C.

Consider `CC1CC2(OC3CC4C5CCC6CC(O)CCC6(C)C5C(=O)CC4(C)C3C2(C)O)OC1(C)C` (stereo unspecified), for which the melting point is 206 to 208 °C.

Molecule `CC(C)(C)NC(=S)Nc1cccc(SCCCC#N)n1` had a melting point of 156 to 157 °C.

The molecule `CSc1ccc(C(=O)Nc2c(Cl)cncc2Cl)cc1OC1CCCC1` had a melting point of 157 to 159 °C.

For `Cc1cccc(N(CCO)Cc2ccc3nc(N)n(Cc4nc(C)ccc4O)c3c2)c1`, the melting point came out at 210 °C.

For the molecule `CC(C)n1nc(-c2sc(NC(=O)Oc3ccccc3)nc2-c2ccccc2)ccc1=O`, the melting point was 205 to 207 °C.

`O=S(=O)(CCl)c1ccc(O)cc1`: the melting point was found to be 110 °C.

Molecule `CC(C)c1cc(C(=O)Nc2ccc(C(=O)O)s2)oc1C(C)C` yielded a melting point of 227 to 228 °C.

In turn, `CN1C(=O)C2C3C=CC(CC3)C2(c2ccc(Cl)c(Cl)c2)C1=O` (stereo unspecified) displayed a melting point of 125 to 128 °C.

`CCNc1ccc(F)c(-c2cccnc2)c1F` came in with a melting point of 79 to 80 °C.

On to `COC(=O)c1cccnc1CN1C(=O)C(NC(=O)Nc2cccc(C)c2)N=C(c2ccccc2F)c2ccccc21` (racemic), for which the melting point lay in the range of 171 to 175 °C.

`Cc1cccc(C)c1C(=O)OCC(N)=O`: the melting point lay in the range of 106 to 108 °C.

In turn, `O=C(c1cccnc1)C(Cc1ccc(F)cc1)c1ccccc1` (stereo unspecified) registered a melting point of 100 to 102 °C.

For `Cc1ccc(C#N)c(OCc2ccc(OCc3nc(-c4ccccc4)oc3C)cc2)n1`, the melting point was 116 to 117 °C.

A word on the melting point: it is the temperature of the solid-liquid transition.
